In ChEMBL document CHEMBL1201862, “PubChem BioAssay data set” (2004):
Activity calls are given as the source filed them.

Assays:
[1] = P. falciparum late gametocyte killing, dose response, luminescence (AID 1117278); type: functional, cell-based;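 also: gametocytes exposed to compound for 24 hours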
[2] = Jurkat T cell cytotoxicity, dose response, cytotoxicity control for P. falciparum gametocyte viability project, luminescence (AID 1117277); type: functional, cell-based;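 also: potency reflects loss of cellular ATP meaning fewer viable cells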
[3] = Artemis endonuclease inhibitor potency, dose response, biochemical, fluorescence intensity (AID 720701); type: functional;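 also: Artemis endonuclease enzyme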
[4] = molecular target: Mitogen-activated protein kinase 10 (Homo sapiens, UniProt P53779); assay: Dose response biochemical screening assay for inhibitors of c-Jun N-Terminal Kinase 3 (JNK3). [Related pubchem assays: 746 ]
BJ [5] = assay: cytotoxicity toward BJ-TERT fibroblasts, dose response, cell-based, RAS-independent, luminescence (AID 1933); type: functional; details: Homo sapiens
BJ [6] = assay: cells; type: functional, cell-based; details: Homo sapiens
BJ [7] = assay: cytotoxicity toward BJ-TERT-LT-ST fibroblasts, dose response, cell-based, RAS-independent, luminescence (AID 1935); type: functional; details: Homo sapiens;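 also: BJ fibroblasts immortalized with TERT plus LT and ST oncogenes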
[8] = cytotoxicity toward DRD oncogenic fibroblasts, dose response, cell-based, non-viral oncogenic, luminescence (AID 1934); type: functional; details: Homo sapiens
[9] = NIH-3T3 fibroblast cytotoxicity, dose response, cytotoxicity control, cell-based, fluorescence, Alamar Blue, secondary assay (AID 2327); type: functional;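 also: NIH-3T3 mouse fibroblasts cultured with fluconazole at 8 µg/mL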
[10] = molecular target: T1, RNA-binding protein pos-1 (Caenorhabditis elegans, UniProt G5EF15); assay: inhibitors of POS-1/mex-3 RNA binding, dose response, biochemical, fluorescence polarization (AID 1964);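 also: purified POS-1 fused to maltose binding protein made in E. coli; potency of compounds blocking POS-1 binding to fluorescent RNA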
T1 sequence (G5EF15 whole entry): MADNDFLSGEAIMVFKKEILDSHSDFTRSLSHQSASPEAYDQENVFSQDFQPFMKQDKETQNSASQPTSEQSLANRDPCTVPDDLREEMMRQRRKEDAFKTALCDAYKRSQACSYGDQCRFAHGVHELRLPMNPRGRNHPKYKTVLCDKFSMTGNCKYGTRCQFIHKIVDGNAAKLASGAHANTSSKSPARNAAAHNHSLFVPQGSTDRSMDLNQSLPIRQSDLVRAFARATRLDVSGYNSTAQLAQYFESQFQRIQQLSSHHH

[11] = molecular target: T2, Zinc finger protein mex-5 (Caenorhabditis elegans, UniProt Q9XUB2); assay: MEX-5/TCR-2 RNA interaction inhibitors, dose response, biochemical, C. elegans, fluorescence polarization (AID 1960)
T2 sequence (Q9XUB2 whole entry): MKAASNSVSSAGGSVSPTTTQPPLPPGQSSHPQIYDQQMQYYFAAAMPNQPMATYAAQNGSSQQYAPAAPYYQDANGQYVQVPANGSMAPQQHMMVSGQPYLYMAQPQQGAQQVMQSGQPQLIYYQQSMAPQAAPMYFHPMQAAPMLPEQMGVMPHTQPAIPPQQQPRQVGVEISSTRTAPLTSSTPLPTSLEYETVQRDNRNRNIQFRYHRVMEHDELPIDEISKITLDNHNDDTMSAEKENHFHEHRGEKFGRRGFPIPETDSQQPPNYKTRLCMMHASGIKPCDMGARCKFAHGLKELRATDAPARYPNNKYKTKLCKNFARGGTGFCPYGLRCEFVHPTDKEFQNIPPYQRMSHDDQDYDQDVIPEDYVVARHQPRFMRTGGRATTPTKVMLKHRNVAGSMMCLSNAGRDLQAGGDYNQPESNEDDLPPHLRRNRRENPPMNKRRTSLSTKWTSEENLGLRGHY

[12] = C. albicans growth with fluconazole, confirmation, fluorescence, retest (AID 2467); type: functional, cell-based
[13] = inhibitors of intracellular T. cruzi replication, confirmation, NIH3T3 host cells, beta-gal luminescence (AID 2044); type: functional, cell-based;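 also: intracellular parasites grown in NIH/3T3 mouse fibroblasts as host cells; luminescent beta-galactosidase reporter signal from transgenic T. cruzi replicating inside host cells; inhibitors lower the luminescence signal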
[14] = cytotoxicity toward NIH3T3 fibroblasts, dose response, counter-screen, cell-based, ATP luminescence, mouse fibroblasts (AID 2010); type: functional;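 also: cells exposed to compound for about 90 hours before reading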
[15] = molecular target: T3, Endoribonuclease toxin MazF (Escherichia coli K-12, UniProt P0AE70); assay: MazF toxin RNase activators, dose response, biochemical, fluorescence, single-stranded RNA substrate, uHTS hits (AID 588481); type: functional
T3 sequence (P0AE70 whole entry): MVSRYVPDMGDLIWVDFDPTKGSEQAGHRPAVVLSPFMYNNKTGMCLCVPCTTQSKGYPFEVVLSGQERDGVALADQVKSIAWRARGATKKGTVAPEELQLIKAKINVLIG

[16] = molecular target: T3, Endoribonuclease toxin MazF; assay: fluorescent RNA oligo signal without MazF, dose response, counter-screen for MazEF activator project, biochemical, fluorescence, single-stranded RNase substrate (AID 588502); type: functional
[17] = molecular target: T4, Corticotropin-releasing factor receptor 2/Corticotropin-releasing factor-binding protein (Homo sapiens, UniProt P24387+Q13324); assay: activators of CRF receptor 2 with binding protein – uHTS hits, confirmation (AID 602473); type: functional; details: read-out: EC50_Mean
T4 sequence (Q13324 whole entry): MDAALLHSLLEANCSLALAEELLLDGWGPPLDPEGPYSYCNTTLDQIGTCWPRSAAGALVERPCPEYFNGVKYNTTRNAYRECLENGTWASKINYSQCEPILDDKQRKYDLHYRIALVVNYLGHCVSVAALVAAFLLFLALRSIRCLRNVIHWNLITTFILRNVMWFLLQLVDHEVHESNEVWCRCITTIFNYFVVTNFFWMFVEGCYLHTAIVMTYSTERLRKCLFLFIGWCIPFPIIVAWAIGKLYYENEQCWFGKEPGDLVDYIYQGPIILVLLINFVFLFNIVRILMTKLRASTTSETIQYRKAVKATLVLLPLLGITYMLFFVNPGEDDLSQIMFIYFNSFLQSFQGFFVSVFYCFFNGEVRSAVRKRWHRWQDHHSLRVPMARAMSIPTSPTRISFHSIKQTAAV
T4 sequence (P24387 whole entry): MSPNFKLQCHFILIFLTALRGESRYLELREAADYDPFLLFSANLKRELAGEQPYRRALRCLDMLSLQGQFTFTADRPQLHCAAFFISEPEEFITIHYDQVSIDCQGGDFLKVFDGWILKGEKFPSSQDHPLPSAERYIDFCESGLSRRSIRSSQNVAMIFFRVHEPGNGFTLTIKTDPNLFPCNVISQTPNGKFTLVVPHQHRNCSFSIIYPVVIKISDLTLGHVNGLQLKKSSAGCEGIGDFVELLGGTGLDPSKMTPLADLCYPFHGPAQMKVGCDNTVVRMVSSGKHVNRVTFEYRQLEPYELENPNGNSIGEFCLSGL

[18] = THP-1 cell cytotoxicity, dose response, cytotoxicity control for Vif-APOBEC3G degradation inhibitor project, THP-1 cells (AID 1117359); type: functional; details: Human immunodeficiency virus 1, THP-1
[19] = molecular target: T5, Tyrosine-protein phosphatase non-receptor type 7 (Homo sapiens, UniProt P35236); assay: inhibitors of human HePTP phosphatase, […], biochemical, absorbance, leukemia target (AID 521); type: functional
T5 sequence (P35236 whole entry): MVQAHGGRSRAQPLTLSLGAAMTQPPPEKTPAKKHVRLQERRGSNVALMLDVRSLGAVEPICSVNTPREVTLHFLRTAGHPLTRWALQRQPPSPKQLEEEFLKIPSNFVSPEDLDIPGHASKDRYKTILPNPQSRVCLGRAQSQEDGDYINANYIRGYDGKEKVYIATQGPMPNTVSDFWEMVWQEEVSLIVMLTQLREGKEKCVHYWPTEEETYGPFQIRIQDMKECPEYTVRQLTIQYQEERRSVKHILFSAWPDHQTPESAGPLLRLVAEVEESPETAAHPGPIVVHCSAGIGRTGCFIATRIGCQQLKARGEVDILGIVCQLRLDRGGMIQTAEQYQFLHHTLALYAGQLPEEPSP

[20] = P. falciparum 3D7-ScDHODH growth inhibitors, dose response, SYBR Green, dry powder samples (AID 1159570); type: functional, cell-based;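 also: parasite growth measured after 72 hours of compound exposure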
[21] = P. falciparum Dd2 growth inhibitors, dose response, SYBR Green, cherry-picked samples (AID 1159567); type: functional, cell-based
[22] = P. falciparum Dd2 growth inhibitors, dose response, SYBR Green, dry powder samples (AID 1159566); type: functional, cell-based;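 also: potency for growth inhibition with lower SYBR green DNA signal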
[23] = P. falciparum ATP4 D1247Y mutant growth inhibitors, dose response, NITD609-resistant line, SYBR Green, dry powder (AID 1159571); type: functional, cell-based;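 also: parasites synchronized at ring stage by sorbitol before testing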
Large T antigen = Large T antigen (Simian virus 40, UniProt P03070); type: functional, Betapolyomavirus macacae;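 also: Confirmatory-stage PubChem screen for compounds that inhibit SV40 T antigen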
[24] = molecular target: T6, Replicative DNA helicase DnaB (Mycobacterium tuberculosis, UniProt P9WMR3); assay: DnaB intein splicing inhibitors, dose response, biochemical, cell-free fluorescence (AID 449749); type: functional
T6 sequence (P9WMR3 whole entry): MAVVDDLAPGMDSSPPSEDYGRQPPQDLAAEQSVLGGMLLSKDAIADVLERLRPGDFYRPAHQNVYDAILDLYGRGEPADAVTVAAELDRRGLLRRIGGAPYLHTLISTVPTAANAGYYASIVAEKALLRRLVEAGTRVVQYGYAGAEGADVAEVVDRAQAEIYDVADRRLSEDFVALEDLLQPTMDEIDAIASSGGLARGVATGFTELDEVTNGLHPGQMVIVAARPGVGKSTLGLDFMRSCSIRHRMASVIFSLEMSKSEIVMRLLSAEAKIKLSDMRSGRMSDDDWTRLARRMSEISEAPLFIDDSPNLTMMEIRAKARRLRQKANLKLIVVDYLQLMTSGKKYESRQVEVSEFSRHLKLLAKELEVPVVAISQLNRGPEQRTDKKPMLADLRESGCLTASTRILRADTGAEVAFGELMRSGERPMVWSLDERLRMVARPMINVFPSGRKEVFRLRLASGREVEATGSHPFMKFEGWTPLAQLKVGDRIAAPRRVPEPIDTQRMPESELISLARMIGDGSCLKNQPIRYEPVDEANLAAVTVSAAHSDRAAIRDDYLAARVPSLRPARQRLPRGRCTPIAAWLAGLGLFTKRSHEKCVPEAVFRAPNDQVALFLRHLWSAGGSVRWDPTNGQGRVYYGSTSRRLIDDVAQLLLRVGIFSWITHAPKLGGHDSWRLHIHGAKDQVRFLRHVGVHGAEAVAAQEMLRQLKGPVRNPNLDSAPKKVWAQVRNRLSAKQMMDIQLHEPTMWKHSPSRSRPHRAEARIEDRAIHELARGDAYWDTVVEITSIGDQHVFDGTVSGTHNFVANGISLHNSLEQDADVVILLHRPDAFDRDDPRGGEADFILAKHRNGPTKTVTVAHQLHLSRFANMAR

Protein RecA = molecular target: T7, Protein RecA (Mycobacterium tuberculosis, UniProt P9WHJ3); assay: Fluorescence Cell-Free Homogeneous Dose Retest to Identify Inhibitors of RecA-Intein Splicing Activity. [Related pubchem assays (depositor defined):AID2097, AID2223, AID489010, AID492950]; type: functional
T7 sequence (P9WHJ3 whole entry): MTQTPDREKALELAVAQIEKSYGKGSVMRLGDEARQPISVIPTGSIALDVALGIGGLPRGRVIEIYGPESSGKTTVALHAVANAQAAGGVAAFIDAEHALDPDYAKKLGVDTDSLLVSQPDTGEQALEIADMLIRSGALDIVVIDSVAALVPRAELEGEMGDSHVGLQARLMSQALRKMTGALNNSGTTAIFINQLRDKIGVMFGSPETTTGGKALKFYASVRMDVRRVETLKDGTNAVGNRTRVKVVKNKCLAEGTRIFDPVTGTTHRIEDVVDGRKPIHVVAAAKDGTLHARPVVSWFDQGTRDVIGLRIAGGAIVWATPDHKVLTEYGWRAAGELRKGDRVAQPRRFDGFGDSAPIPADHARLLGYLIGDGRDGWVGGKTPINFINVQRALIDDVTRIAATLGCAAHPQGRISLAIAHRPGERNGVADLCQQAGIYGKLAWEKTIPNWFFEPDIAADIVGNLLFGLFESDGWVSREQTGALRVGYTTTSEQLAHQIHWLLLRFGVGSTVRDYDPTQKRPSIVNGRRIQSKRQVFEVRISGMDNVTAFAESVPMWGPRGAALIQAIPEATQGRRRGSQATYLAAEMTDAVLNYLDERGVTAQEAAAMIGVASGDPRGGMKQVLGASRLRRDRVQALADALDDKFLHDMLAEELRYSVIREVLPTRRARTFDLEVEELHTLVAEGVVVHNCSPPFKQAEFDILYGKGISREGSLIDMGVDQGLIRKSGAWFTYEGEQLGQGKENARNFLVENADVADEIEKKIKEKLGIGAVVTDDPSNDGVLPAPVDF

Chain of Mitogen-activated protein kinase 10 (P53779 whole entry): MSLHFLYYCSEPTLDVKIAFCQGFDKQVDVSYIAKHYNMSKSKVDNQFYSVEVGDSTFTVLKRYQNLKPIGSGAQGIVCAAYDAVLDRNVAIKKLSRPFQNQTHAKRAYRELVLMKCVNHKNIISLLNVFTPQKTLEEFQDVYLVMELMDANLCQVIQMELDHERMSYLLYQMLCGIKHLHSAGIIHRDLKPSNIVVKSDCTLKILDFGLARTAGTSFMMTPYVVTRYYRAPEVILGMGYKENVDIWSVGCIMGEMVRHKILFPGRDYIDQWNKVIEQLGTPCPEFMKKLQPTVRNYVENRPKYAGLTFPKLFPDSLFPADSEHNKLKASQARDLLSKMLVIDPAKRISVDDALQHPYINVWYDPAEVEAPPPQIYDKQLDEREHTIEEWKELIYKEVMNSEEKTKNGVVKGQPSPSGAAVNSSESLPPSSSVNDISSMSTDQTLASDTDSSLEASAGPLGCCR
Chain of Large T antigen (P03070 whole entry): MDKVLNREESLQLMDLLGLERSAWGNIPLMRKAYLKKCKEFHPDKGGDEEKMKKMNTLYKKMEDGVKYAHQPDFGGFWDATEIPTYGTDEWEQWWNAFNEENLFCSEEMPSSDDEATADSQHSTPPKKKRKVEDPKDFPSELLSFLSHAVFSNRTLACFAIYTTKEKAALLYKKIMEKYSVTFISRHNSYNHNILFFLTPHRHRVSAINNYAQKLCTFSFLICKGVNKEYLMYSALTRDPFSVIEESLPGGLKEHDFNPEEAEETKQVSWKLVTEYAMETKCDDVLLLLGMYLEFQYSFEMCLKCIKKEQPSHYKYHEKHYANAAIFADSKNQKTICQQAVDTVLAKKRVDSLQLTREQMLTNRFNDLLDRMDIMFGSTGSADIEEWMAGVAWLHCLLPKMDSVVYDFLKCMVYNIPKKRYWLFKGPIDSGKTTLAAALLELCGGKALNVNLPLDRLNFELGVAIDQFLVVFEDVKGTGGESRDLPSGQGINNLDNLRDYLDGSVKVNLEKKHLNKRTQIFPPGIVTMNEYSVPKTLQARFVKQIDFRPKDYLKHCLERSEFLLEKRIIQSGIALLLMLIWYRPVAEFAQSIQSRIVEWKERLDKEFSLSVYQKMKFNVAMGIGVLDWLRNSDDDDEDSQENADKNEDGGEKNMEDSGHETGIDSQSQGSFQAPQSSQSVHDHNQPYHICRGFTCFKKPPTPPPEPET

## CC(=O)NC1C(=O)N=C(SCc2ccccc2)NC1=O (stereo not given)
[1]
  IC50: > 109 µM (inactive)
[2]
  IC50: > 83.3 µM (inactive)

## CCCc1ccc(OCCNC(=O)CC)cc1
[1]
  IC50: > 109 µM (inactive)
[2]
  IC50: > 83.4 µM (inactive)

## Oc1ccc2ccccc2c1/C=N/c1nc2c(s1)CCCC2
[3]
  IC50: > 20 µM (inactive)

## N#Cc1sc2nc3c(c(-c4ccco4)c2c1N)CCCC3
[4]
  IC50: 68.6 µM (not active)

## CCOC(=O)c1c(-c2ccc(OC)cc2)n[nH]c1N
[4]
  IC50: 63.1 µM (not active)

## COc1cccc(-c2cn3nc4c(nc3n2)CCCC4)c1
BJ [5]
  EC50: 16.2 µM (active)
BJ [6]
  EC50: 21.6 µM (active)
BJ [7]
  EC50: > 150 µM (not active)
[8]
  EC50: 12.9 µM (active)
[3]
  IC50: > 20 µM (inactive)

## CCN(CC)c1ccc(/N=C/c2ccc(N(CC)CC)cc2O)cc1
[9]
  EC50: 147 µM (inconclusive)
[10]
  EC50: > 300 µM (not active)
[11]
  EC50: > 300 µM (not active)
[12]
  EC50: > 38 µM (not active)
[13]
  EC50: 3.25 µM (active)
[14]
  EC50: > 60 µM (not active)
[15]
  EC50: > 99 µM (inactive)
[16]
  EC50: > 99 µM (inactive)
[17]
  EC50: 4.26 µM (active)
[18]
  CC50: > 40 µM (active)

## N#Cc1c(N)nc2c(c1-c1ccncc1)CCCCC2
[1]
  IC50: > 109 µM (inactive)
[2]
  IC50: > 83.4 µM (inactive)

## CNC(=O)C1=NCCCc2cc(OC)c(OC)cc21
[19]
  IC50: > 100 µM (not active)

## CC(=O)N(/N=C1\Sc2ccccc2C1=O)c1ccccc1
[3]
  IC50: 6.46 µM (active)

## C[C@H]1CN([C@@H](C)CO)S(=O)(=O)c2ccc(-c3ccc(C#N)cc3)cc2O[C@H]1CN(C)CC1CC1
[20]
  AC50: 2.79 µM (active)
[21]
  AC50: 2.27 µM (active)
[22]
  AC50: 1.76 µM (active)
[23]
  AC50: 3.08 µM (active)

## COc1ccccc1CNC(=O)Nc1cccs1
[19]
  IC50: > 100 µM (not active)

## COc1ccc(Nc2ccc(OC)cc2)cc1
Large T antigen
  IC50: 26.2 µM (active)
[24]
  AC50: 121 µM (active)
Protein RecA
  EC50: > 380 µM (inactive)
[18]
  CC50: 21 µM (active)
